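Assay format: 96-well plates, 48-hour exposure. TGI: total growth inhibition.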
Columns and labels:
Experiment in all cases: DTP human tumour cell line panel, 48 h
[1] = tested on: LOX IMVI melanoma
[2] = tested on: T-47D breast
[3] = tested on: HOP-92 NSCLC
[4] = tested on: MALME-3M melanoma
[5] = tested on: HCT-116 colon
[6] = tested on: MDA-N
[7] = tested on: SNB-75 CNS
[8] = tested on: SR leukemia
[9] = tested on: UO-31 renal
[10] = tested on: EKVX NSCLC
[11] = tested on: SK-MEL-28 melanoma

Row | Compound | TGI [1] | TGI [2] | TGI [3] | TGI [4] | TGI [5] | TGI [6] | TGI [7] | TGI [8] | TGI [9] | TGI [10] | TGI [11]
1 | O=C(O)C12C3C4(C(=O)O)C1C1(C(=O)O)C2C3(C(=O)O)C41 (stereo not drawn) | > 100 µM | > 100 µM | > 100 µM | > 100 µM | > 100 µM | > 100 µM | > 100 µM | > 100 µM | > 100 µM | > 100 µM | > 100 µM
2 | Cn1c2ccccc2c2c3c(=O)[nH][nH]c(=O)c3c3c4ccccc4n(C)c3c21 | > 100 µM | > 100 µM | > 100 µM | > 100 µM | > 100 µM | > 100 µM | > 100 µM | 0.252 µM | > 100 µM | > 100 µM | > 100 µM
3 | COc1ccc(C(=C2C(=O)OC(=O)C2=C(C)C)c2ccc(OC)cc2)cc1 | > 100 µM | > 100 µM | > 100 µM | > 100 µM | > 100 µM | > 100 µM | > 100 µM | > 100 µM | > 100 µM | > 100 µM | > 100 µM
4 | CC1=CC(O)CC(C)(C)C1/C=C/C(C)=C/C=C/C(C)=C/C=C/C=C(C)/C=C/C=C(C)/C=C/C1=C(C)CC(O)CC1(C)C (stereo not drawn) | > 100 µM | 44.7 µM | 41 µM | 29 µM | 30 µM | 37.8 µM | > 100 µM | > 100 µM | > 100 µM | > 100 µM | 31.4 µM
5 | O=C1c2c(Br)sc(Br)c2[C@H]2OC(=S)N[C@@H]12 | 10.9 µM | 44.2 µM | 27.3 µM | 10.4 µM | 7.6 µM | 16.9 µM | 31 µM | 5.19 µM | 3.34 µM | 11.4 µM | 7.94 µM
6 | O=C(O)Cn1c[n+](NC(=O)Cc2ccccc2)cn1 | > 10 µM | > 10 µM | > 10 µM | > 10 µM | > 10 µM | > 10 µM | > 10 µM | > 10 µM | > 10 µM | > 10 µM | > 10 µM
7 | O=c1[nH]nc(-c2ccc([N+](=O)[O-])cc2)[nH]1 | > 100 µM | > 100 µM | > 100 µM | > 100 µM | > 100 µM | > 100 µM | > 100 µM | > 100 µM | > 100 µM | > 100 µM | > 100 µM
8 | O=C1CCC(CCc2nc3ccccc3[nH]2)(c2ccccc2)C(=O)N1 (stereo not drawn) | > 100 µM | > 100 µM | > 100 µM | > 100 µM | > 100 µM | > 100 µM | > 100 µM | > 100 µM | 52.1 µM | > 100 µM | > 100 µM
9 | COC(=O)Cc1c2n(c3ccccc13)C(=O)N1c3ccccc3C(CC(=O)OC)C21 (stereo not drawn) | > 100 µM | > 100 µM | 27.5 µM | > 100 µM | > 100 µM | > 100 µM | 28.5 µM | > 100 µM | > 100 µM | > 100 µM | > 100 µM
10 | CCCCCc1cc(CCCC)sc1-c1ccco1 | > 100 µM | > 100 µM | > 100 µM | > 100 µM | > 73 µM | > 100 µM | > 100 µM | > 100 µM | > 100 µM | > 100 µM | > 100 µM
11 | COc1ccc2c(c1)CCC(CN1CCN(CCOC(c3ccccc3)c3ccccc3)CC1)C2O (stereo not drawn) | 32.5 µM | 47.8 µM | 28.5 µM | 32.4 µM | 24.8 µM | 28.1 µM | 34.5 µM | 69.8 µM | 30 µM | 24.4 µM | 31.9 µM
12 | CCOP(=O)(CC1OC(CO)C(O)C1O)OCC (stereo not drawn) | > 100 µM | > 100 µM | > 100 µM | > 100 µM | > 100 µM | > 100 µM | > 100 µM | > 100 µM | > 100 µM | > 100 µM | > 100 µM
13 | O=C1CCCC2=C1CC1=C(CCCC1=O)N2c1ccc(-c2ccccc2)cc1 | > 100 µM | > 100 µM | > 100 µM | > 100 µM | > 100 µM | > 100 µM | > 67.5 µM | > 100 µM | > 100 µM | > 100 µM | > 100 µM
